The values below come from patent publication US10343985B2, “Cryopyrin inhibitors for preventing and treating inflammation” (VIRGINIA COMMONWEALTH UNIVERSITY, priority 2013, dated 2019).

Data set [1] deals with T1, NLRP3 inflammasome (Mus musculus, UniProt Q8R4B8). The experiment in a line: Caspase-1 enzymatic activity in HL-1 cardiomyocytes. In kind it is cell-based, murine. On the set-up: immortalized adult murine cardiomyocytes (HL-1) cells were used; endogenous in cells; host or cells: HL-1 murine cardiomyocytes. To be noted: LPS/ATP, compound 400 μM.
T1 sequence (Q8R4B8 whole entry): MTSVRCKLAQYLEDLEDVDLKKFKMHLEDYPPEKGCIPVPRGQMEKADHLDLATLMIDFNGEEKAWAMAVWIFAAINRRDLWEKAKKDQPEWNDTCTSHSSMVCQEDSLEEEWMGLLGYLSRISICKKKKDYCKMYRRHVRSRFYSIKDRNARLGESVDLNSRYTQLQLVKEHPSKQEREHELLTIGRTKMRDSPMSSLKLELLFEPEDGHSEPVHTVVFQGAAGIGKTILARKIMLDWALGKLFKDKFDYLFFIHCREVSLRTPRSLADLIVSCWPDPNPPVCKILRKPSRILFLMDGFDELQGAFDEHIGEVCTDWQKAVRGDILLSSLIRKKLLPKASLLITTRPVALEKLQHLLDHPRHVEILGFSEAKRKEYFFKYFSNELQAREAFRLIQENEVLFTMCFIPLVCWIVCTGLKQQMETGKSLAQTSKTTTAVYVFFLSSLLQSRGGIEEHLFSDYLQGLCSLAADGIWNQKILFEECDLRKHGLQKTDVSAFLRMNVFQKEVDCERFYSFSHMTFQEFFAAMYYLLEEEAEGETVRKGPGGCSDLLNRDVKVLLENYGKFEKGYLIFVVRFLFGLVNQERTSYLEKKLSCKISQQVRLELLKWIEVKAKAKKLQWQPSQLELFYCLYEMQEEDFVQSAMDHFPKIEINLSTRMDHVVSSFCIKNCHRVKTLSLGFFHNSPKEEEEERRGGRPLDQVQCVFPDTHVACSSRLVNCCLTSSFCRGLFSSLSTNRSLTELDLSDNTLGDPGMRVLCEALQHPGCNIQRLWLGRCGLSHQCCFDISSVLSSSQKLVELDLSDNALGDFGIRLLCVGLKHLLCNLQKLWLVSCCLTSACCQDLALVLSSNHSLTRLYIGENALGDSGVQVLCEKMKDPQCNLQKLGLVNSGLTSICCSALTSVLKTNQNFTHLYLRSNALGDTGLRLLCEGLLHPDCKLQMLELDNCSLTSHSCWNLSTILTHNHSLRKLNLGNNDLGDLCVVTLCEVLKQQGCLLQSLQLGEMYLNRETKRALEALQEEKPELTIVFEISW
Protocol: In separate experiments, immortalized adult murine cardiomyocytes (HL-1) cells were used. […] Formation of the NLRP3 inflammasome in HL-1 cells was determined and quantified by ASC aggregation (immunohistochemistry), caspase-1 activity (enzymatic activity) and cell death (trypan blue exclusion method), as previously described. […] As readout for the NLRP3 inflammasome activation, caspase-1 enzymatic activity and cell death were evaluated. Briefly, HL-1 cells (2×10^6 cells) were plated in 90-mm dishes and NLRP3 inflammasome formation was induced as described above. After treatments, to measure caspase-1 activity, the cells were washed, harvested, and frozen. The pellet was resuspended using RIPA buffer (Sigma-Aldrich) containing a mixture of protease inhibitors (Sigma-Aldrich) and centrifuged at 16,200×g for 20 min. The supernatants were collected and the protein contents were quantified using the Bradford assay. The caspase-1 activity was determined by measuring the fluorescence produced by the cleavage of a fluorogenic substrate. The fluorescence was reported as arbitrary fluorescence units produced by 1 μg of sample per min (fluorescence/μg/min).
For data set [2], the target named is T1, NLRP3 inflammasome. The experiment in a line: Cell death in HL-1 cardiomyocytes (trypan blue exclusion). It is filed as cell-based, murine. On the set-up: immortalized adult murine cardiomyocytes (HL-1) cells were used; endogenous in cells; host or cells: HL-1 murine cardiomyocytes.
A further data set has as its system insulin. To be noted: Lamkanfi et al. 2009; cited from earlier work.
The target of data set [3] is T1, NLRP3 inflammasome. Nature of the data set: Acute myocardial infarction, single i.p. dose at reperfusion, infarct size (TTC). In kind it is in vivo. On the set-up: from tissue; host or cells: live mice: heart (infarction and doxorubicin models) and peritoneal cavity (zymosan A). To be noted: experiment with G1; 100 mg/kg i.p. at reperfusion; 24 hours; vs vehicle.
Protocol: Experimental AMI was induced in mice by transient myocardial ischemia for 30 min followed by 24 hours of reperfusion. […] The heart were explanted at 24 hours and processed for the measurement of infarct size using triphenyl tetrazolium chloride (TTC staining). The areas of infarcted tissue, the risk zone, and the whole LV areas are determined by computer morphometry using Image Pro® Plus 6.0 software (Media Cybernetics, Silver Spring, Md.).
As described above, experimental AMI was induced by transient myocardial ischemia for 30 min followed by 24 hours of reperfusion.
Data set [4] deals with NLRP3 inflammasome (Homo sapiens, UniProt Q96P20). To be noted: literature reports, cited from earlier work.
NLRP3 inflammasome (Homo sapiens, UniProt Q96P20), sequence (Q96P20 whole entry): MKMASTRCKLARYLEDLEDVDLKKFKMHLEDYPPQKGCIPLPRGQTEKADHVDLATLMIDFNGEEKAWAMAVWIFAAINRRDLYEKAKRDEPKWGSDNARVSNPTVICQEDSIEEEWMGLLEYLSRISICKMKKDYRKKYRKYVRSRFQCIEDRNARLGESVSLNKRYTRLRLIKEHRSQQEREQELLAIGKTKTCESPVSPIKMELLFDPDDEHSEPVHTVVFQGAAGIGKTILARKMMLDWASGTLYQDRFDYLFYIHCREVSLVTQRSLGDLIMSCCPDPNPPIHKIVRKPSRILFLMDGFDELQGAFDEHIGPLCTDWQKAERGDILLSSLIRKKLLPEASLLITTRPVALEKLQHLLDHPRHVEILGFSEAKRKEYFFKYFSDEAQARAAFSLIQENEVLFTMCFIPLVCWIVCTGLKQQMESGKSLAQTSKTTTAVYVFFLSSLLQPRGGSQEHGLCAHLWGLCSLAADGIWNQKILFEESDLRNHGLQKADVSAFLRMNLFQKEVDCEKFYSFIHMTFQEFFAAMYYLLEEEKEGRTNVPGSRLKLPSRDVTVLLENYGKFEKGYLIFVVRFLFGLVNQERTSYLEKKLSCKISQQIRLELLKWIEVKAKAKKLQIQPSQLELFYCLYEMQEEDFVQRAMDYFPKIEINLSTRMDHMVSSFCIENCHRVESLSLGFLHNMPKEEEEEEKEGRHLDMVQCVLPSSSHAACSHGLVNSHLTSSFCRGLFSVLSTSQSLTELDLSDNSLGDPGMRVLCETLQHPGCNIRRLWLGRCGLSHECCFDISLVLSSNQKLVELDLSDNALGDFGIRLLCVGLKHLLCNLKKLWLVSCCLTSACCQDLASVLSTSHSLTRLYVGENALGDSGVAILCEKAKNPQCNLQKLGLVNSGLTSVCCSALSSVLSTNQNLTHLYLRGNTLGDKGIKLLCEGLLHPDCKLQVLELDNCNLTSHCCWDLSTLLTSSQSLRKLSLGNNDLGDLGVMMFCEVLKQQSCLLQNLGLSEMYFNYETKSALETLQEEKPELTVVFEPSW
The subject of the next data set is healthy mice. The experiment in a line: Toxic effects and glucose levels in healthy control mice.

The structures appear in SMILES notation. Read-outs that look alike come from different tables or passages of the source.

For the compound `COc1ccc(Cl)cc1C(=O)NCCc1ccccc1` [Compound 6 in FIG. 3, 5-chloro-2-methoxy-N-(2-phenylethyl)-benzamide], the results for the caspase-1 activity result on NLRP3 inflammasome [1] and at NLRP3 inflammasome [1] (listed as intermediate compound) were “failed to inhibit” and “no inhibitory effects”, respectively. The cell death result is “failed” on NLRP3 inflammasome [2] and “no inhibitory effects” on NLRP3 inflammasome [2] (HL-1, LPS/ATP, compound 400 μM).

Regarding `COc1ccc(Cl)cc1C(=O)NCCc1ccc(S(=O)(=O)Cl)cc1` [Compound G1, 4-(2-[(5-chloro-2-methoxyphenyl)formamido]ethyl)benzene-1-sulfonyl chloride], the effect on insulin entry in the data set with insulin is “no effect”. The “infarct size (% area at risk)” value at NLRP3 inflammasome [3] is given as “no effect”. Also, the “inhibition of cryopyrin / NLRP3 inflammasome in vitro” value at NLRP3 inflammasome [4] was “inhibited”; on NLRP3 inflammasome [4] (listed as compound 1), “retain some of the anti-inflammatory activity of glyburide”.

Take `COc1ccc(Cl)cc1C(=O)NCCc1ccc(S(=O)(=O)NC(=O)NC2CCCCC2)cc1` [glyburide]: in the data set with healthy mice (100 mg/kg every 6 hours for 3 doses), the “lethal within 3 days, share of mice” value is given as 50%. Besides, the “glucose levels 2 hours after a single dose” value in the data set on healthy mice (16673-34-0 100 mg/kg, (equimolar)) was “significant reduction”. The “lethal in 3 days, share of mice” value with healthy mice (daily doses of 500 mg/kg) is 100%. Moreover, the “mortality in healthy mice” value in the data set with healthy mice (every 6 hours for 24 hours, 16673-34-0 100 mg/kg) was determined as 50%. Also, in the data set on healthy mice (healthy mice, single and repeated injections, glyburide effect as early as 2 hours), the plasma glucose levels result is “significant reduction”.
